The source of these data is PubChem BioAssay AID248 (DTP/NCI, 2004).

The test system of this assay is L1210 leukemia ip in BDF1 mice, survival T/C. The assay is described as follows: NCI In Vivo Anticancer Drug Screen. Data for tumor model L1210 Leukemia (intraperitoneal) in B6D2F1 (BDF1) mice. The following applies: endpoint: mean survival time, higher = longer survival. Summed up:
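Antitumor effect is assessed in tumor-bearing animals. Survival in the compound arm is compared with a vehicle-dosed control arm and expressed as their quotient.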

The mark [1] stands for this setting: dose: 5.0 mg/kg/injection, schedule: Q01DX001 (ip), vehicle: saline.
Setting [2] is: dose: 10.0 mg/kg/injection, schedule: Q01DX001 (ip), vehicle: saline.
Setting [3] is: dose: 20.0 mg/kg/injection, schedule: Q01DX001 (ip), vehicle: saline.
The mark [4] stands for this setting: dose: 40.0 mg/kg/injection, schedule: Q01DX001 (ip), vehicle: saline.
Setting [5] is: dose: 80.0 mg/kg/injection, schedule: Q01DX001 (ip), vehicle: saline.
Setting [6] is: dose: 100.0 mg/kg/injection, schedule: Q01DX001 (ip), vehicle: saline.
Where [7] appears, read: dose: 400.0 mg/kg/injection, schedule: Q01DX001 (ip), vehicle: carboxymethylcellulose (CMC).
Setting [8] is: dose: 100.0 mg/kg/injection, schedule: Q01DX009 (ip), vehicle: Klucel (hydroxypropylcellulose) (HPC).
The mark [9] stands for this setting: dose: 100.0 mg/kg/injection, schedule: Q04DX003 (ip), vehicle: Klucel (hydroxypropylcellulose) (HPC).
Setting [10] is: dose: 200.0 mg/kg/injection, schedule: Q01DX009 (ip), vehicle: Klucel (hydroxypropylcellulose) (HPC).
Where [11] appears, read: dose: 200.0 mg/kg/injection, schedule: Q04DX003 (ip), vehicle: Klucel (hydroxypropylcellulose) (HPC).
Setting [12] is: dose: 100.0 mg/kg/injection, schedule: Q01DX009 (ip), vehicle: other.
The mark [13] stands for this setting: dose: 200.0 mg/kg/injection, schedule: Q01DX009 (ip), vehicle: other.
Setting [14] is: dose: 400.0 mg/kg/injection, schedule: Q04DX003 (ip), vehicle: Klucel (hydroxypropylcellulose) (HPC).

Toxic doses and inconclusive results are not listed.

As to `CCCCN(CCCC)CCCNc1c2c(nc3ccccc13)CCCC2`, the T/C is 95 % of control under setting [1]; 95 % of control under setting [2]; 93 % of control under setting [3]; 89 % of control under setting [4]; 91 % of control (dose: 50.0 mg/kg/injection, schedule: Q01DX001 (ip), vehicle: saline); 93 % of control under setting [5].

With `CN=C(NC)c1ccc(NC(=O)c2cccc(C(=O)Nc3ccc(C(=NC)NC)cc3)c2)cc1`, the T/C is 110 % of control (dose: 15.0 mg/kg/injection, schedule: Q01DX Z (ip), vehicle: saline); 119 % of control (dose: 30.0 mg/kg/injection, schedule: Q01DX Z (ip), vehicle: saline); 86 % of control (dose: 60.0 mg/kg/injection, schedule: Q01DX Z (ip), vehicle: saline).

Turning to `NC(=S)N=Nc1c(O)cc(O)c2[nH]c(=O)ccc12`, the T/C was 101 % of control under setting [1]; 101 % of control under setting [2]; 103 % of control under setting [3]; 105 % of control under setting [4]; 108 % of control under setting [5].

In the case of `COC(=O)c1ccc(N(C)CCC(=O)CBr)cc1`, the T/C under setting [6] is 95 % of control.

As for `CN(CCC#N)C(=O)Nc1ccc(Cl)c(Cl)c1`, the T/C reads like this: (dose: 100.0 mg/kg/injection, schedule: Q04DX002 (ip), vehicle: other) 109 % of control; (dose: 200.0 mg/kg/injection, schedule: Q04DX002 (ip), vehicle: other) 102 % of control; (dose: 400.0 mg/kg/injection, schedule: Q04DX002 (ip), vehicle: other) 102 % of control.

As to `COc1ccc(CCNC2C3CC4CC(C3)CC2C4)cc1OC` (stereo not given), the T/C (dose: 100.0 mg/kg/injection, schedule: Q04DX003 (ip), vehicle: saline) is 94 % of control.

Regarding `CCOC(=O)CCCN(c1ccccc1C(=O)OC)S(=O)(=O)c1ccc(C)cc1`, the T/C (dose: 100.0 mg/kg/injection, schedule: Q01DX001 (ip), vehicle: carboxymethylcellulose (CMC)) was 97 % of control; the T/C (dose: 200.0 mg/kg/injection, schedule: Q01DX001 (ip), vehicle: carboxymethylcellulose (CMC)) was 94 % of control; the T/C under setting [7] is 103 % of control.

On to `O=C(O)/C(=C\c1ccc([N+](=O)[O-])cc1)c1cccc2ccccc12`, for which the T/C (dose: 50.0 mg/kg/injection, schedule: Q04DX003 (ip), vehicle: Klucel (hydroxypropylcellulose) (HPC)) is 94 % of control; the T/C under setting [8] is 93 % of control; the T/C under setting [9] is 89 % of control; the T/C under setting [10] is 98 % of control; the T/C under setting [11] was 91 % of control.

Regarding `NCCc1c[nH]c2ccc(O)cc12` (tested in a mixture with another compound), the T/C reads like this: (dose: 120.0 mg/kg/injection, schedule: Q01DX009 (ip), vehicle: carboxymethylcellulose (CMC)) 107 % of control; under setting [7], 108 % of control; (dose: 600.0 mg/kg/injection, schedule: Q01DX001 (ip), vehicle: carboxymethylcellulose (CMC)) 108 % of control; (dose: 600.0 mg/kg/injection, schedule: Q01DX009 (ip), vehicle: carboxymethylcellulose (CMC)) 102 % of control; (dose: 800.0 mg/kg/injection, schedule: Q01DX001 (ip), vehicle: carboxymethylcellulose (CMC)) 114 % of control; (dose: 800.0 mg/kg/injection, schedule: Q01DX009 (ip), vehicle: carboxymethylcellulose (CMC)) 119 % of control. Besides, the T/C (dose: 1000.0 mg/kg/injection, schedule: Q01DX001 (ip), vehicle: carboxymethylcellulose (CMC)) was 106 % of control.

On to `COc1ccc(-c2ccc(C(C)=O)cc2)cc1`, for which the T/C runs as follows: (dose: 100.0 mg/kg/injection, schedule: Q04DX002 (ip), vehicle: Klucel (hydroxypropylcellulose) (HPC)) 90 % of control; (dose: 200.0 mg/kg/injection, schedule: Q04DX002 (ip), vehicle: Klucel (hydroxypropylcellulose) (HPC)) 100 % of control; (dose: 400.0 mg/kg/injection, schedule: Q04DX002 (ip), vehicle: Klucel (hydroxypropylcellulose) (HPC)) 100 % of control.

Turning to `CC(C)C1(C(C)C)NC(=O)NC1=O`, the T/C runs as follows: (dose: 100.0 mg/kg/injection, schedule: Q01DX001 (ip), vehicle: other) 98 % of control; under setting [12], 101 % of control; (dose: 100.0 mg/kg/injection, schedule: Q04DX003 (ip), vehicle: other) 102 % of control; (dose: 200.0 mg/kg/injection, schedule: Q01DX001 (ip), vehicle: other) 98 % of control; under setting [13], 106 % of control; (dose: 200.0 mg/kg/injection, schedule: Q04DX003 (ip), vehicle: other) 98 % of control. Besides, the T/C runs as follows: (dose: 400.0 mg/kg/injection, schedule: Q01DX001 (ip), vehicle: other) 106 % of control; (dose: 400.0 mg/kg/injection, schedule: Q01DX009 (ip), vehicle: other) 107 % of control; (dose: 400.0 mg/kg/injection, schedule: Q04DX003 (ip), vehicle: other) 100 % of control.

As to `CCCCCCCCCCCCCCCCCC(=O)OC1C(CO)OC2C1Oc1nc(=N)ccn12` (stereo not given), the T/C is, setting by setting: (dose: 12.5 mg/kg/injection, schedule: Q01DX009 (ip), vehicle: other) 165 % of control; (dose: 25.0 mg/kg/injection, schedule: Q01DX009 (ip), vehicle: other) 190 % of control; (dose: 50.0 mg/kg/injection, schedule: Q01DX009 (ip), vehicle: other) 235 % of control; under setting [12], 283 % of control; under setting [13], 120 % of control.

As for `CNC(=O)c1nc(C)c(C)[nH]c1=O`, the T/C is 98 % of control (dose: 25.0 mg/kg/injection, schedule: Q01DX009 (ip), vehicle: water); 96 % of control (dose: 50.0 mg/kg/injection, schedule: Q01DX009 (ip), vehicle: water); 98 % of control (dose: 100.0 mg/kg/injection, schedule: Q01DX009 (ip), vehicle: water); 103 % of control (dose: 100.0 mg/kg/injection, schedule: Q04DX003 (ip), vehicle: water); 89 % of control (dose: 200.0 mg/kg/injection, schedule: Q01DX009 (ip), vehicle: water); 95 % of control (dose: 200.0 mg/kg/injection, schedule: Q04DX003 (ip), vehicle: water).

Take `CC(=O)N/N=C(/C)c1cccs1`: the T/C under setting [6] is 103 % of control; the T/C (dose: 200.0 mg/kg/injection, schedule: Q01DX001 (ip), vehicle: saline) was 109 % of control; the T/C (dose: 400.0 mg/kg/injection, schedule: Q01DX001 (ip), vehicle: saline) is 100 % of control.

As for `Nc1nc(=S)c2[nH]c(N=Nc3ccc(S(=O)(=O)Nc4ncccn4)cc3)nc2[nH]1`, the T/C runs as follows: (dose: 19.0 mg/kg/injection, schedule: Q04DX003 (ip), vehicle: Klucel (hydroxypropylcellulose) (HPC)) 164 % of control; (dose: 29.0 mg/kg/injection, schedule: Q04DX003 (ip), vehicle: Klucel (hydroxypropylcellulose) (HPC)) 164 % of control; under setting [8], 96 % of control; (dose: 100.0 mg/kg/injection, schedule: Q04DX003 (ip), vehicle: saline with Tween-80) 185 % of control; under setting [10], 97 % of control; (dose: 200.0 mg/kg/injection, schedule: Q04DX003 (ip), vehicle: saline with Tween-80) 151 % of control.

Turning to `Oc1cc2ccccc2cc1O`, the T/C is, setting by setting: (dose: 100.0 mg/kg/injection, schedule: Q04DX002 (ip), vehicle: saline with Tween-80) 104 % of control; (dose: 200.0 mg/kg/injection, schedule: Q04DX002 (ip), vehicle: saline with Tween-80) 97 % of control; (dose: 400.0 mg/kg/injection, schedule: Q04DX002 (ip), vehicle: saline with Tween-80) 93 % of control.

As to `O=C(Nc1ccccc1)N1CCC2N(C(=O)Nc3ccccc3)CCC3N(C(=O)Nc4ccccc4)CCC1N23` (stereo not given), the T/C was 94 % of control under setting [9], 96 % of control under setting [11] and 100 % of control under setting [14].

In the case of `COc1ccc(N2C(=O)OC3(CCN(CCCC(=O)c4ccccc4)CC3)C2=O)cc1`, the T/C is, setting by setting: under setting [9], 101 % of control; under setting [11], 98 % of control; under setting [14], 92 % of control.
